Results: the supplement of paper PMC10307832

Key:
Experiment in all cases: relative viability (nuclei count vs DMSO), 5 days (fraction); higher = more cells survive
NCI-H441 = test system: NCI-H441
Outline: (§1)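 Cells from lung cancer lines were seeded into 1536-well plates and, one day later, dosed by pin tool. Treatments were either a single drug or a fixed dose of an anchor drug with five library-drug doses (not always all listed) in √10 steps. After 5 days, nuclei were stained in a one-step fixation (final 0.05% Triton X-100, 1% formaldehyde, 1 ug/ml Hoechst) and counted on 4× images, and relative viability is the treated-to-vehicle nuclei ratio, as the median of duplicate plates.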

NCI-H647 = test system: NCI-H647
Outline: as §1

NCI-H460 = test system: NCI-H460
Outline: as §1

PC-14 = test system: PC-14
Outline: as §1

NCI-H1437 = test system: NCI-H1437
Outline: as §1

ABC-1 = test system: ABC-1
Outline: as §1

NCI-H1755 = test system: NCI-H1755
Outline: as §1

NCI-H23 = test system: NCI-H23
Outline: as §1

HCC-366 = test system: HCC-366
Outline: as §1

NCI-H2023 = test system: NCI-H2023
Outline: as §1

NCI-H3122 = test system: NCI-H3122
Outline: as §1

NCI-H2009 = test system: NCI-H2009
Outline: as §1

H3255 = test system: H3255
Outline: as §1

UMC-11 = test system: UMC-11
Outline: as §1

A-427 = test system: A-427
Outline: as §1

PC-3 [JPC-3] = test system: PC-3 [JPC-3]
Outline: as §1

NCI-H2347 = test system: NCI-H2347
Outline: as §1

HCC-44 = test system: HCC-44
Outline: as §1

NCI-H2405 = test system: NCI-H2405
Outline: as §1

LCLC-103H = test system: LCLC-103H
Outline: as §1

LXF-289 = test system: LXF-289
Outline: as §1

COCC1(CO)C(=O)C2CCN1CC2 (stereo not drawn) [PRIMA-1MET] + CC(=O)c1c(C)c2cnc(Nc3ccc(N4CCNCC4)cn3)nc2n(C2CCCC2)c1=O [Palbociclib] (partner 0.5 µM)
relative viability (NCI-H441; first compound 0.2 µM): 0.221 | relative viability (NCI-H441; first compound 0.6325 µM): 0.227 | relative viability (NCI-H441; first compound 2 µM): 0.192 | relative viability (NCI-H441; first compound 6.325 µM): 0.201 | relative viability (NCI-H441; first compound 20 µM): 0.205 | relative viability (NCI-H647; first compound 0.2 µM): 0.449 | relative viability (NCI-H647; first compound 0.6325 µM): 0.387 | relative viability (NCI-H647; first compound 2 µM): 0.276 | relative viability (NCI-H647; first compound 6.325 µM): 0.481 | relative viability (NCI-H647; first compound 20 µM): 0.42 | relative viability (NCI-H460; first compound 0.2 µM): 0.153 | relative viability (NCI-H460; first compound 0.6325 µM): 0.139 | relative viability (NCI-H460; first compound 2 µM): 0.168 | relative viability (NCI-H460; first compound 6.325 µM): 0.114 | relative viability (NCI-H460; first compound 20 µM): 0.0061 | relative viability (PC-14; first compound 0.2 µM): 0.644 | relative viability (PC-14; first compound 0.6325 µM): 0.476 | relative viability (PC-14; first compound 2 µM): 0.509 | relative viability (PC-14; first compound 6.325 µM): 0.525 | relative viability (PC-14; first compound 20 µM): 0.0303 | relative viability (NCI-H1437; first compound 0.2 µM): 0.322 | relative viability (NCI-H1437; first compound 0.6325 µM): 0.313 | relative viability (NCI-H1437; first compound 2 µM): 0.306 | relative viability (NCI-H1437; first compound 6.325 µM): 0.324 | relative viability (NCI-H1437; first compound 20 µM): 0.299 | relative viability (ABC-1; first compound 0.2 µM): 0.984 | relative viability (ABC-1; first compound 2 µM): 0.482 | relative viability (ABC-1; first compound 6.325 µM): 0.552 | relative viability (ABC-1; first compound 20 µM): 0.181 | relative viability (NCI-H1755; first compound 0.2 µM): 0.479 | relative viability (NCI-H1755; first compound 0.6325 µM): 0.397 | relative viability (NCI-H1755; first compound 2 µM): 0.43 | relative viability (NCI-H1755; first compound 6.325 µM): 0.482 | relative viability (NCI-H1755; first compound 20 µM): 0.459 | relative viability (NCI-H23; first compound 0.2 µM): 0.469 | relative viability (NCI-H23; first compound 0.6325 µM): 0.351 | relative viability (NCI-H23; first compound 2 µM): 0.416 | relative viability (NCI-H23; first compound 6.325 µM): 0.538 | relative viability (NCI-H23; first compound 20 µM): 0.121 | relative viability (HCC-366; first compound 0.2 µM): 0.433 | relative viability (HCC-366; first compound 0.6325 µM): 0.31 | relative viability (HCC-366; first compound 2 µM): 0.382 | relative viability (HCC-366; first compound 6.325 µM): 0.407 | relative viability (HCC-366; first compound 20 µM): 0.0167 | relative viability (NCI-H2023; first compound 0.2 µM): 0.352 | relative viability (NCI-H2023; first compound 0.6325 µM): 0.379 | relative viability (NCI-H2023; first compound 2 µM): 0.422 | relative viability (NCI-H2023; first compound 6.325 µM): 0.365 | relative viability (NCI-H2023; first compound 20 µM): 0.295 | relative viability (NCI-H3122; first compound 0.2 µM): 0.21 | relative viability (NCI-H3122; first compound 0.6325 µM): 0.167 | relative viability (NCI-H3122; first compound 2 µM): 0.184 | relative viability (NCI-H3122; first compound 6.325 µM): 0.2 | relative viability (NCI-H3122; first compound 20 µM): 0.201 | relative viability (NCI-H2009; first compound 0.2 µM): 0.185 | relative viability (NCI-H2009; first compound 0.6325 µM): 0.251 | relative viability (NCI-H2009; first compound 2 µM): 0.112 | relative viability (NCI-H2009; first compound 6.325 µM): 0.215 | relative viability (NCI-H2009; first compound 20 µM): 0.0008 | relative viability (H3255; first compound 0.2 µM): 0.319 | relative viability (H3255; first compound 0.6325 µM): 0.293 | relative viability (H3255; first compound 2 µM): 0.312 | relative viability (H3255; first compound 6.325 µM): 0.294 | relative viability (H3255; first compound 20 µM): 0.33 | relative viability (UMC-11; first compound 0.2 µM): 0.31 | relative viability (UMC-11; first compound 0.6325 µM): 0.362 | relative viability (UMC-11; first compound 2 µM): 0.268 | relative viability (UMC-11; first compound 6.325 µM): 0.356 | relative viability (UMC-11; first compound 20 µM): 0.278 | relative viability (A-427; first compound 0.2 µM): 0.574 | relative viability (A-427; first compound 0.6325 µM): 0.523 | relative viability (A-427; first compound 2 µM): 0.576 | relative viability (A-427; first compound 6.325 µM): 0.49 | relative viability (A-427; first compound 20 µM): 0.525 | relative viability (PC-3 [JPC-3]; first compound 0.2 µM): 0.597 | relative viability (PC-3 [JPC-3]; first compound 0.6325 µM): 0.608 | relative viability (PC-3 [JPC-3]; first compound 2 µM): 0.573 | relative viability (PC-3 [JPC-3]; first compound 6.325 µM): 0.574 | relative viability (PC-3 [JPC-3]; first compound 20 µM): 0.521 | relative viability (NCI-H2347; first compound 0.2 µM): 0.451 | relative viability (NCI-H2347; first compound 0.6325 µM): 0.317 | relative viability (NCI-H2347; first compound 2 µM): 0.365 | relative viability (NCI-H2347; first compound 6.325 µM): 0.42 | relative viability (NCI-H2347; first compound 20 µM): 0.313 | relative viability (HCC-44; first compound 0.2 µM): 1.02 | relative viability (HCC-44; first compound 0.6325 µM): 0.873 | relative viability (HCC-44; first compound 2 µM): 0.95 | relative viability (HCC-44; first compound 6.325 µM): 0.954 | relative viability (HCC-44; first compound 20 µM): 1.03 | relative viability (NCI-H2405; first compound 0.2 µM): 0.487 | relative viability (NCI-H2405; first compound 0.6325 µM): 0.539 | relative viability (NCI-H2405; first compound 6.325 µM): 0.518 | relative viability (NCI-H2405; first compound 20 µM): 0.24 | relative viability (LCLC-103H; first compound 0.2 µM): 0.488 | relative viability (LCLC-103H; first compound 0.6325 µM): 0.376 | relative viability (LCLC-103H; first compound 2 µM): 0.466 | relative viability (LCLC-103H; first compound 6.325 µM): 0.484 | relative viability (LCLC-103H; first compound 20 µM): 0.425 | relative viability (LXF-289; first compound 0.2 µM): 0.642 | relative viability (LXF-289; first compound 0.6325 µM): 0.662 | relative viability (LXF-289; first compound 2 µM): 0.734 | relative viability (LXF-289; first compound 6.325 µM): 0.594 | relative viability (LXF-289; first compound 20 µM): 0.602
